# In patent US9233127B2, “Compositions and methods for CXCR4 signaling and umbilical cord blood stem cell engraftment” (University of Virginia Patent Foundation, priority 2012, dated 2016):
# “Also recorded” adds a separate entry of the source. Ends that are not written are not given here.
# Key:
# [1] = tested on: CD34+ cells; test: Transwell chemotaxis of CD34+ cells to an SDF-1 gradient (priming); assay type: cell-based, human; settings: pre-incubated 1 hr with MβCD (2.5 mM); low dose of SDF-1
# Description: FIG. 11A-B—Effect of SLP and its components on chemotaxis of CD34^+ cells. Panel A: Chemotaxis of BM CD34^+ cells towards medium alone (control), SDF-1 low (10 ng/mL) alone, SLP (combined SLP from three patients), SDF-1 low+SLP, and SDF-1 high (300 ng/mL). Data are pooled from quadruplicate samples from three independent experiments. *p<0.00001. Panel B: Chemotaxis of UCB CD34^+ cells to medium alone (control), SDF-1 low (10 ng/mL) alone and SDF-1 low (10 ng/mL)+uPAR (1 μg/mL) or +ICAM (1 μg/mL) or +VCAM (1 μg/mL) or +FN (2 μg/mL), or +FG (4 μg/mL) or +C3a (1 μg/mL). Data are pooled from quadruplicate samples from three independent experiments. * p<0.00001.
# Chemotaxis of CD34^+ cells to medium alone (control), C3a (1 μg/ml), C3adesArg (1 μg/ml), SDF-1 low (10 ng/mL) alone, and SDF-1 low (10 ng/mL)+C3a low (0.1 μg/ml) or SDF-1 low (10 ng/mL)+C3a (1 μg/ml) or SDF-1 low (10 ng/mL)+C3adesArg (1 μg/ml). Data are pooled from quadruplicate samples from three independent experiments.* p<0.00001.
# FIG. 13A-B—Chemotaxis of cells to an SDF-1 gradient is lipid raft-dependent. Panel A: Chemotaxis of CD34^+ cells to medium alone (control), SDF-1 (300 ng/mL) and SDF-1 (300 ng/mL) after preincubation for 1 hr with Amphotericin (10 μg/mL) or Nystatin (50 μg/mL). Cells were collected after chemotaxis from the lower chambers and plated in a clonogenic assay. The number of CFU-GM and BFU-E colonies formed by harvested cells is shown as a percentage of control values. Data are pooled from quadruplicate samples from three independent experiments. *p<0.0001. Panel B: Chemotaxis of CD34^+ cells towards medium alone (control), SDF-1 low (10 ng/mL) alone, or SDF-1 low with cells exposed to C3a (1 μg/mL). Cells pretreated before chemotaxis for 1 hr with MβCD (2.5 mM) are shown as gray bars. Data are pooled from quadruplicate samples from three independent experiments. * p<0.00001.
# HSPCs from the mPB engraft faster compared to HSPCs aspirated from BM. To test the hypothesis that mPB-derived HSPCs are primed in their responses to SDF-1 by molecules present in SLP, we pooled together SLP from three patients and exposed BM or UCB CD34^+ cells to the SLP during chemotaxis to a low (10 ng/mL) dose of SDF-1.
# To address this issue further, the formation of rafts in the cells was perturbed by MβCD, which depletes cholesterol from the cell membrane. The CD34^+ cells were pre-incubated with MβCD for 1 hr. Chemotaxis to a low dose of SDF-1 in the presence of C3a (in the upper chambers) was evaluated.
# [2] = tested on: THP-1 cell; test: THP-1 cell migration to SDF-1 gradient with LL-37 and MβCD pretreatment; assay type: cell-based
# Description: (§1) FIG. 18A-B—Priming effect of cationic peptides is dependent on enhanced incorporation of CXCR4 into lipid rafts. (A) Western blot analysis of the localization of CXCR4 in various fractions of cell membranes. Membranes enriched in lipid rafts (fractions 3-5) and depleted of lipid rafts (fractions 9-11). Human pre-B cell line, Nalm-6, was stimulated with […] β2-defensin (hBD-2) (250 ng/ml) or was not stimulated (control). CXCR4 was detected in these membrane fractions by Western blot along with Lyn, a marker of lipid rafts. Experiments were performed three times with similar results. (B) LL-37-induced enhancement of THP-1 cell migration to SDF-1 gradient was inhibited by 1 h pretreatment with MβCD (1.0 or 2.5 mM). * P<0.05 as compared with migration of control cells in the absence of LL-37 (2.5 μg/ml). Lipid raft formation was analyzed. Shown are representative of three independent experiment carried out in triplicate per group. The data shown represent the combine results from four independent experiments carried out in triplicate per group (n=12).
# (§2) Since enhanced responsiveness of HSPCs to SDF-1 gradient in the presence of C3a (priming effect) is mediated by incorporation of CXCR4 into membrane lipid rafts, we tested if similar phenomenon is responsible for LL-37 or β2D-dependent priming. […]
# [3] = tested on: murine BMNCs and CFU-GM progenitor cells; test: Migration of murine BMNCs and CFU-GM progenitors to SDF-1 gradient after cationic peptide priming; assay type: cell-based; settings: for migration of CFU-GM progenitor cells in response to SDF-1 gradient / migration of murine BMNCs in response to SDF-1 gradient: SDF-1 50 ng/ml; for chemotactic activity alone: without SDF-1
# Description: FIG. 8A-B—A) BM mononuclear cell and B) CFU-GM migration in response to an SDF-1 gradient after priming with LL-37 or hBD-2. Values are fold increases of migrated cells compared to media alone.
# FIG. 17A-B—Cationic peptides released from granulocytes enhance responsiveness of HSPCs to SDF-1 gradient. […] Values are the fold increases of migrated cells compared to media alone. M, media alone; SDF-1 (L), 50 ng/ml; SDF-1 (H), 300 ng/ml; C3a, 1 μg/ml. * P<0.05 as compared with SDF-1 (50 ng/ml) alone. The data shown represent the combine results from four independent experiments carried out in triplicate per group (n=12).
# We also evaluated the effect of complement fragment 5a (C5a). […] After leaving the BM, granulocytes undergo degranulation in response to plasma C5a and secrete cationic peptides, such as cathelicidin (LL-37) and β-defensin-2 (hBD-2). […] It was hypothesized that this response may be affected by the distribution of membrane lipids by cationic peptides. […] Direct confocal analysis of CXCR4 and lipid raft colocalization in the presence or absence of cationic peptides confirmed these findings.
# [4] = tested on: CXCR4; test: Western blot of CXCR4 in lipid raft membrane fractions, cationic peptides (Nalm-6); assay type: cell-based, human
# Description: as §1, §2
# [5] = tested on: syngeneic BM mononuclear cells; test: Murine BM transplant with BM mononuclear cells exposed ex vivo to LL-37; assay type: in vivo; settings: BM exposed ex vivo 30 minutes; lethally irradiated recipients
# Description: Leukophoresis products enriched in activated granulocytes release hBD-2 and LL-37. The question was whether this might explain why mobilized peripheral blood hematopoietic progenitors engrafts substantially faster relative to marrow. We therefore performed studies in a murine BM transplant model where syngeneic BM mononuclear cells were exposed ex vivo to LL-37 for 30 minutes and subsequently transplanted into lethally irradiated recipients. […] On the basis of these findings, this represents a second strategy for reducing the period of neutropenia in recipients of UCB
# [6] = tested on: DNA methyltransferase; test: miR-184 expression by RT-PCR in adult CD4 T-cells treated with 5-aza deoxycytidine; assay type: cell-based, human; settings: 10 uM for 24 h
# Description: FIG. 29A-B—A.) Schematic of the genomic region surrounding hsa-miR-184. Dots denote CpG sites and a putative CpG island (defined by observed/expected CpG incidence>[…], GC>50%, length>100 bp) located closely upstream. B) Adult CD4 T-cells were cultured with and without the DNA methyltransferase blocker 5-aza deoxycytidine (5-aza) for 24 h, a portion stimulation for 6 h, then assayed for miR-184 expression by RT-PCR.
# However, expression of many miRNA species is known to be mediated by epigenetic events such as DNA methylation. […] Indeed we observed a small predicted (obs/exp>0.6, GC>50%) CpG island upstream of the miR-184 genomic site as well as several additional downstream CpG sites (FIG. 29 A). Inhibition of […] gene silencing is accomplished by treating with 5-aza-deoxycytidine, which is incorporated into replicating DNA and blocks DNA methyltransferase enzymes.
Compound,inhibition of the priming effect of C3a [1] [%],"LL-37-enhanced migration/responsiveness to SDF-1 gradient ([2]; 1 h pretreatment with MβCD (1.0 or 2.5 mM), LL-37 2.5 μg/ml)","fMLP mediated migration ([2]; control experiments, MβCD pretreatment)",effect on the priming effects of LL-37 and hBD-2 ([3]; inhibitor of cell membrane raft formation),incorporation of CXCR4 into membrane lipid rafts [4],priming effect compared with that described for C3a [3],responsiveness of hematopoietic progenitors to plasma SDF-1 (priming effect) [3],migration of CFU-GM progenitor cells in response to SDF-1 gradient [3],migration of murine BMNCs in response to SDF-1 gradient [3],chemotactic activity alone [3],accelerated recovery of platelets and neutrophils compared to unprimed control cells [5] [days],miR-184 expression [6],miR-184 expression increase when cells were stimulated in vitro ([6]; stimulation 6 h),migration of CFU-GM progenitor cells in response to SDF-1 gradient ([3]; listed as β2D),migration of murine BMNCs in response to SDF-1 gradient ([3]; listed as β2D)
"methyl-β-cyclodextrin [MβCD, reference compound]",~60,inhibited,did not affect,inhibit the priming effects,–,–,–,–,–,–,–,–,–,–,–
"LL-37: active fragment of cathelicidin; recombinant cationic peptide released from granulocytes (LLGDFFRKSKEKIGKEFKRIVQRIKDFLRNLVPRTES; Antibacterial peptide LL-37; UniProt P49913 134-170, looked up)",–,–,–,–,increase incorporation of CXCR4,several times higher,highly enhanced,enhance/prime migration; also recorded: strongly enhanced,enhance/prime migration; also recorded: strongly enhanced,do not show chemotactic activity,3 to 5,–,–,–,–
"Nc1ncn([C@H]2C[C@H](O)[C@@H](CO)O2)c(=O)n1 [5-aza deoxycytidine, 5-aza-deoxycytidine]",–,–,–,–,–,–,–,–,–,–,–,significant increase,abrogated,–,–
"hBD-2: β-defensin-2; recombinant cationic peptide released from granulocytes (GIGDPVTCLKSGAICHPVFCPRRYKQIGTCGLPGTKCCKKP; ends and bridges not checked; cysteine pairing not given here; UniProt O15263 24-64, looked up)",–,–,–,–,increase incorporation of CXCR4,several times higher,highly enhanced,strongly enhanced,strongly enhanced,do not show chemotactic activity,–,–,–,enhance/prime migration,enhance/prime migration
